Experiments:
[1] = tested on: rats, dogs, cats and rabbits; conditions: prior art; cited from earlier work
skin = assay: Handling hazard observed in synthesis; conditions: observation in synthesis
[2] = tested on: genetically hypertensive rats; assay: Blood pressure change after oral dosing (intra-arterial cannula and transducer); format: in vivo, rat; conditions: P.O. 50 mg./kg.; for change in vivo at 50 mg/kg: Rattus norvegicus, po, + increase, - decrease in b.p., tested as hydrochloride salts
Experimental: The blood pressure of unanesthetized rats and dogs was measured directly by means of a transducer attached to an intra-arterial cannula and in anesthetized dogs by a mercury manometer attached to a carotid cannula.
The compounds of the instant invention were tested as the hydrochloride salts by the above method in genetically hypertensive rats in doses of 50 mg./kg. orally.

| SMILES | change in vivo at 50 mg/kg [2] | other results |
| --- | --- | --- |
| c1ccc2c(c1)CN1CCNC1=N2 |  | antihypertensive activity [1]: potent antihypertensive activity |
| Cc1cccc([N+](=O)[O-])c1CCl [2-Methyl-6-nitrobenzyl chloride] |  | lachrymator and skin irritant (skin): strong lachrymator and skin irritant |
| O=C1CCN2Cc3cc(Br)ccc3N=C2N1 [Compound 21, 8-Bromo-6-[H]-1,2,3,4-tetrahydropyrimido[2,1-b]quinazolin-2-one] |  | Blood Pressure % Change Rats column: toxicity in words [2]: Toxic |
| COc1cccc2c1CN1CCC(=O)NC1=N2 [Compound 25] | 5 ± 3% |  |
| COc1ccc2c(c1)CN1CCC(=O)NC1=N2 [Compound 26] | 19 ± 6% |  |
| COc1cccc2c1N=C1NC(=O)CCN1C2 [Compound 27] | -1 ± 4% |  |
| COc1cc2c(cc1OC)N=C1NC(=O)CCN1C2 [Compound 28] | -7 ± 2% |  |
